According to patent EP4005565A1 (priority 2020, dated 2022):
Structures can show the parent of a compound that is named as a salt. Where two headings read alike, the source gives them in different places.

Assays:
[1] = system: SARS-CoV-2 (viral strain INMI1); assay: Antiviral activity assay with nucleoprotein readout (ELISA) in infected Vero E6 cells; format: cell-based; conditions: Severe acute respiratory syndrome coronavirus 2, Vero C1008, 72 h, read-out: IC50, SARS-CoV-2 replication (virus nucleoprotein in % of infected untreated control)
Method: The cell line is routinely maintained in DMEM supplemented with 1% glutamine, 1% penicillin/streptomycin and 10% fetal bovine serum and can be infected with SARS-CoV-2 (Ogando et al., 2020).
Exponentially growing Vero E6 cells were seeded into a 96-well plate at their optimal density in complete medium. […] Drug dilutions were performed in culture medium. Replicates for each concentration point were examined. At the end of the incubation period, antiviral activity was examined through both ELISA (Sino Biological, quantifying SARS-CoV-2 nucleoprotein) as well as a cytoprotection assay (toxicity effect examined through an inverted microscope). An inhibitory concentration 50% (IC50) value was calculated through interpolation of the dose-response curves generated.
The nucleoprotein was quantified by ELISA. Results are means ± SD of 2-4 experiments.

[2] = cited from earlier work
[3] = system: lysosomal uptake; conditions: at 10µM (Smieszek et al., 2020); cited from earlier work
[4] = target: binding of the viral spike protein to ACE2 (UniProt P0DTC2+Q9BYF1); conditions: Fink et al. in prep; cited from earlier work
Chain of binding of the viral spike protein to ACE2 (Q9BYF1 18-805, one chain of several): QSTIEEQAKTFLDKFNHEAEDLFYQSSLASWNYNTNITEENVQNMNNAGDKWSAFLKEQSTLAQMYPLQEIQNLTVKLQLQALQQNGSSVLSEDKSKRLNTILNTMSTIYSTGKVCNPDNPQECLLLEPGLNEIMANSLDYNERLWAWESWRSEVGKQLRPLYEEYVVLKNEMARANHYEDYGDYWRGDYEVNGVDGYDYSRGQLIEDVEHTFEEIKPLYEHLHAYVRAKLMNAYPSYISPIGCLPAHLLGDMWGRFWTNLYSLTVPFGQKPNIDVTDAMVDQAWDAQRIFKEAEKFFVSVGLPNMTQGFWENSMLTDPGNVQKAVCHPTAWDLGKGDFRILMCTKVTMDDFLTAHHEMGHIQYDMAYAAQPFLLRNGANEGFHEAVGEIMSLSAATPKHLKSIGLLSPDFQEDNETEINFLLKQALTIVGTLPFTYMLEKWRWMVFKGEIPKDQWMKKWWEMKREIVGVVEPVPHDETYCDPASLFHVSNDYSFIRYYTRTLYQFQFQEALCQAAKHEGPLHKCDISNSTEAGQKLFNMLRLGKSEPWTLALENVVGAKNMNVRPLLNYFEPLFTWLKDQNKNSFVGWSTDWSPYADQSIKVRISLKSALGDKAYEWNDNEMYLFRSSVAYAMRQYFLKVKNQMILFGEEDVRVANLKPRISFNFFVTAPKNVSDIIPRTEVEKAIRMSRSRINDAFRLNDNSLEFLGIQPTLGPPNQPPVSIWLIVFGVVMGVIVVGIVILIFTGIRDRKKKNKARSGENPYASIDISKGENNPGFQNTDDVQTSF

[5] = system: influenza A; conditions: inhalation, cited from earlier work
[6] = system: influenza A; conditions: inhaled at 6mg/kg/d (Fenton et al., 1977); cited from earlier work
[7] = system: influenza A; conditions: 20 influenza A patients; inhalative 1%, 20mg/d, 3x20min, 4d (Hayden et al., 1980); cited from earlier work
[8] = cited from earlier work; remark: listed apart in the source
[9] = 7 volunteers and 3 influenza patients; 1.5%, up to 9h, 2x6h, 10-11h in 3d (Knight et al., 1979); cited from earlier work
[10] = system: SARS-CoV-2; assay: Treatment of a SARS-CoV-2 positive patient with nebulized amantadine hemisulfate (Example 2); format: in vivo; conditions: 0.4mg/ml inhaled every 2 h for 30min 6 times per day, 7 days
Source text: A patient who had contact 2 days ago with a colleague who turned out to be SARS-CoV-2 positive the day after the meeting, consults their primary care physician. […] The RT-PCR test for SARS-CoV-2 of a nasal swab is also positive; HR is 78/min, BP is 120/80mmHg, BR is 15/min, peripheral O2 saturation is 97%, no further health issues are diagnosed. The patient is diagnosed with Covid-19 and isolated in home quarantine with daily doctor calls to evaluate their health status. […] The treatment is continued for 7 days. […] They recover within 14 days after treatment start.

NC12CC3CC(CC(C3)C1)C2 [amantadine hydrochloride]
IC50 [1]: 88 µM

NC12CC3CC(CC(C3)C1)C2 [amantadine, 1-Adamantylamine]
plasma concentration after inhalative administration ([2]; healthy human volunteers, inhalation (Hayden et al., 1979)): 0.13 µM | plasma concentrations ([2]; patients receiving regularly 600 mg orally per day (Brenner et al., 1989)): up to 14.6 µM | reduced lysosomal uptake [3]: 50% | Interference with the binding of the viral spike protein to ACE2 on target cells [4]: can be ruled out | virus load ([5]; 40 mg/d retained dose (Wilson et al., 1980)): reduced virus load | effect on survival ([5]; 22h/day, 4mg/d retained dose (Walker et al., 1976)): positive effect on survival | virus load [6]: reduced virus load | symptoms [7]: improved symptoms | virus load [7]: reduced virus load | serum concentrations in intoxication case ([8]; human, in vivo): 15.9 µM | plasma concentration at which aggressive behaviour was observed ([8]; patients, plasma): 5.5 to 6.6 µM | plasma concentration at which depression and confusion were observed ([8]; patients, plasma): 19.9 µM | plasma concentration at which seizures were observed ([8]; patients, plasma): 13.2 µM | safety of inhalative administration [9]: safe and irritation-free

amantadine hemisulfate
breathing problems during treatment [10]: does not suffer from breathing problems | fever during treatment [10]: transiently minor fever | time to recovery after treatment start [10]: ≤ 14 days
